No end group written: not given here.
Experiments:
[1] = Time-lapse fluorescence microscopy imaging of peptide-induced vesicle rupture
Description: Highly parallel measurements of peptide-induced liposome rupture were conducted by time-lapsed epifluorescence microscopy imaging. An Eclipse Ti-E inverted microscope (Nikon) with a high-pressure mercury lamp, a CFI Plan Apochromat TIRF×60 oil-immersion objective (NA 1.49; Nikon) and an Andor iXon3 897 EMCCD camera (Andor Technology), was utilized for measurements. The samples were illuminated with a mercury lamp (Intenslight C-HGFIE) using a TRITC filter set. Briefly, glass coverslips were assembled into a microfluidic flow cell, and coated with a thin layer of PLL-g-PEG(-biotin), followed by tethering of 0.025 μg ml^−1 liposomes via biotin-neutravidin coupling. Peptide was then added at a volumetric rate of 100 μl min^−1, and micrographs were recorded every 5-30 s depending on the particular experiment. The initial time was defined by when the peptide solution entered the channel inlet. Data processing and analysis were conducted using ImageJ (National Institutes of Health) and Python(x,y) software packages. The diameter of individual liposomes was estimated based on fluorescence intensity values. […]
Using time-lapse fluorescence microscopy imaging, we further investigated the interactions of different versions of Peptides 2 and 4 with tethered vesicles at the single-vesicle level and saw different degrees of vesicle rupture in terms of total extent and speed (FIG. 14).

[2] = system: DENV-1; assay: Plaque reduction neutralization assay, DENV-1; type: cell-based, Dengue virus serotype 1; details: Vero cells; virus pre-incubated with peptide 1 h at 37° C.; read-out: DENV-1 PRNT50
Description: (§1) Vero cells were seeded at 1×10^5 cells per well and incubated overnight. Twofold serial dilutions of peptide were incubated with 200-300 p.f.u. of virus for 1 h at 37° C. Cells were infected with the virus-peptide mixture for 1 h at 37° C. The inoculum was removed and 0.8% (wt/vol) methylcellulose in medium supplemented with 1% FBS was added. After 3-5 days incubation, plates were fixed and analysed for plaques by immunostaining (DENV). For immunostaining, the cells were fixed, followed by incubation with 4G2, a mouse anti-DENV E protein monoclonal antibody (1:2,000 dilution), for 16-20 h. After addition of a secondary antibody, goat anti-mouse IgG (H+L)-HRP conjugate (1:2,000 dilution), the TrueBlue peroxidase substrate (KPL) was added and the optical density was measured at a wavelength of 450 nm. For crystal violet staining, cells were fixed with fixing solution (5% glutaric dialdehyde in Dulbecco's PBS) followed by staining with 0.1% crystal violet in fixing solution. The IC50 value was calculated by comparing the relative number of plaques in peptide-treated samples to virus-only samples using a four-parameter logistic curve fit.

[3] = system: DENV-2; assay: Plaque reduction neutralization assay, DENV-2; type: cell-based, Dengue virus serotype 2; details: Vero cells; virus pre-incubated with peptide 1 h at 37° C.; read-out: DENV-2 PRNT50
Description: as §1

[4] = system: DENV-3; assay: Plaque reduction neutralization assay, DENV-3; type: cell-based, Dengue virus serotype 3; details: Vero cells; virus pre-incubated with peptide 1 h at 37° C.; read-out: DENV-3 PRNT50
Description: as §1

[5] = system: DENV-4; assay: Plaque reduction neutralization assay, DENV-4; type: cell-based, Dengue virus serotype 4; details: Vero cells; virus pre-incubated with peptide 1 h at 37° C.; read-out: DENV-4 PRNT50
Description: as §1

## AESWLWEVWDWVLHVLSDFKTCLKAKF (Synthetic_Anti-viral peptide derived from hepatitis C virus NS5A protein) [Peptide 10]
[1]; 100 nM peptide
  Vesicle rupture time, calcein (Cal) dye release: 2.38 ± 0.05 min
  Vesicle rupture time, rhodamine (Rh) dye release: 10.09 ± 0.10 min
[1]; 1000 nM peptide
  Vesicle rupture time, calcein (Cal) dye release: 2.06 ± 0.02 min
  Vesicle rupture time, rhodamine (Rh) dye release: 2.09 ± 0.05 min

## AESWLWEVWDWVLHVLSDFKTCLKAKF [Peptide N10N]
[2]
  IC50: 201 nM
[3]
  IC50: 936 nM
[4]
  IC50: 259 nM
[5]
  IC50: 720 nM

## AESWLWEVWDWVLHVLSDFKTCLKAKF [Peptide N100]
[2]
  IC50: 194 nM
[3]
  IC50: 362 nM
[4]
  IC50: 1110 nM
[5]
  IC50: 1150 nM

## AESWLWEVWDWVLHVLSDFKTCLKAKF [Peptide O100]
[2]
  IC50: 60.3 nM
[3]
  IC50: 396 nM
[4]
  IC50: 316 nM
[5]
  IC50: 567 nM

## DGNWLYDIWNWVCTVLADFKLWLGAKI (Synthetic_Anti-viral peptide derived from hepatitis C virus NS5A protein) [Peptide 9]
[1]; 100 nM peptide
  Vesicle rupture time, calcein (Cal) dye release: 4.22 ± 0.17 min
  Vesicle rupture time, rhodamine (Rh) dye release: 6.50 ± 0.07 min
[1]; 1000 nM peptide
  Vesicle rupture time, calcein (Cal) dye release: 1.41 ± 0.03 min
  Vesicle rupture time, rhodamine (Rh) dye release: 1.87 ± 0.014 min

## DGNWLYDIWNWVCTVLADFKLWLGAKI [Peptide N9N]
[2]
  IC50: 96.9 nM
[3]
  IC50: 550 nM
[4]
  IC50: 476 nM
[5]
  IC50: 80.2 nM

## DGNWLYDIWNWVCTVLADFKLWLGAKI [Peptide N9O]
[2]
  IC50: 139 nM
[3]
  IC50: 185 nM
[4]
  IC50: 262 nM
[5]
  IC50: 240 nM

## DGNWLYDIWNWVCTVLADFKLWLGAKI [Peptide O9O]
[2]
  IC50: 50 nM
[3]
  IC50: 192 nM
[4]
  IC50: 119 nM
[5]
  IC50: 139 nM

## GDDWLHDIWDWVCIVLSDFKTWLSAKI (Synthetic_Anti-viral peptide derived from hepatitis C virus NS5A protein) [Peptide 8]
[1]; 100 nM peptide
  Vesicle rupture time, calcein (Cal) dye release: 2.49 ± 0.06 min
  Vesicle rupture time, rhodamine (Rh) dye release: 3.28 ± 0.08 min
[1]; 1000 nM peptide
  Vesicle rupture time, calcein (Cal) dye release: 1.70 ± 0.02 min
  Vesicle rupture time, rhodamine (Rh) dye release: 1.78 ± 0.02 min

## GDDWLHDIWDWVCIVLSDFKTWLSAKI [Peptide N8N]
[2]
  IC50: 97.4 nM
[3]
  IC50: 253 nM
[4]
  IC50: 271 nM
[5]
  IC50: 194 nM

## GDDWLHDIWDWVCIVLSDFKTWLSAKI [Peptide N8O]
[2]
  IC50: 224 nM
[3]
  IC50: 257 nM
[4]
  IC50: 648 nM
[5]
  IC50: 343 nM

## GDDWLHDIWDWVCIVLSDFKTWLSAKI [Peptide O8O]
[2]
  IC50: 69.2 nM
[3]
  IC50: 188 nM
[4]
  IC50: 444 nM
[5]
  IC50: 709 nM

## GSTWLRDIWDWVCTVLSDFRVWLKSKL (Synthetic_Anti-viral peptide derived from hepatitis C virus NS5A protein) [Peptide 11]
[1]; 100 nM peptide
  Vesicle rupture time, calcein (Cal) dye release: 4.15 ± 0.04 min
  Vesicle rupture time, rhodamine (Rh) dye release: 6.00 ± 0.13 min
[1]; 1000 nM peptide
  Vesicle rupture time, calcein (Cal) dye release: 4.67 ± 0.08 min
  Vesicle rupture time, rhodamine (Rh) dye release: 4.91 ± 0.38 min

## GSTWLRDIWDWVCTVLSDFRVWLKSKL [Peptide N11N]
[2]
  IC50: 591 nM
[3]
  IC50: 924 nM
[4]
  IC50: 289 nM
[5]
  IC50: 306 nM

## GSTWLRDIWDWVCTVLSDFRVWLKSKL [Peptide N11O]
[2]
  IC50: 131 nM
[3]
  IC50: 280 nM
[4]
  IC50: 947 nM
[5]
  IC50: 276 nM

## GSTWLRDIWDWVCTVLSDFRVWLKSKL [Peptide O110]
[2]
  IC50: 258 nM
[3]
  IC50: 1160 nM
[4]
  IC50: 490 nM
[5]
  IC50: 810 nM

## SDDWLRIIWDWVCSVVSDFKAWLSAKI (Synthetic_Anti-viral peptide derived from hepatitis C virus NS5A protein) [Peptide 5]
[1]; 100 nM peptide
  Vesicle rupture time, calcein (Cal) dye release: 4.69 ± 0.22 min
  Vesicle rupture time, rhodamine (Rh) dye release: 15.25 ± 0.43 min
[1]; 1000 nM peptide
  Vesicle rupture time, calcein (Cal) dye release: 2.53 ± 0.10 min
  Vesicle rupture time, rhodamine (Rh) dye release: 11.20 ± 0.17 min

## SDDWLRIIWDWVCSVVSDFKAWLSAKI [Peptide N5N]
[2]
  IC50: 236 nM
[3]
  IC50: 545 nM
[4]
  IC50: 1380 nM
[5]
  IC50: 338 nM

## SDDWLRIIWDWVCSVVSDFKAWLSAKI [Peptide N5O]
[2]
  IC50: 235 nM
[3]
  IC50: 838 nM
[4]
  IC50: 1590 nM
[5]
  IC50: 649 nM

## SDDWLRIIWDWVCSVVSDFKAWLSAKI [Peptide O5O]
[2]
  IC50: 37.2 nM
[3]
  IC50: 164 nM
[4]
  IC50: 176 nM
[5]
  IC50: 278 nM

## SDDWLRTIWDWVCSVLADFKAWLSAKI (Synthetic_Anti-viral peptide derived from hepatitis C virus NS5A protein) [Peptide 7]
[1]; 100 nM peptide
  Vesicle rupture time, calcein (Cal) dye release: 2.41 ± 0.06 min
  Vesicle rupture time, rhodamine (Rh) dye release: 5.50 ± 0.11 min
[1]; 1000 nM peptide
  Vesicle rupture time, calcein (Cal) dye release: 1.47 ± 0.01 min
  Vesicle rupture time, rhodamine (Rh) dye release: 2.13 ± 0.00 min

## SDDWLRTIWDWVCSVLADFKAWLSAKI [Peptide N7N]
[2]
  IC50: 171 nM
[3]
  IC50: 562 nM
[4]
  IC50: 1140 nM
[5]
  IC50: 242 nM

## SDDWLRTIWDWVCSVLADFKAWLSAKI [Peptide N7O]
[2]
  IC50: 723 nM
[3]
  IC50: 1880 nM
[4]
  IC50: 2380 nM
[5]
  IC50: 198 nM

## SDDWLRTIWDWVCSVLADFKAWLSAKI [Peptide O7O]
[2]
  IC50: 36 nM
[3]
  IC50: 299 nM
[4]
  IC50: 213 nM
[5]
  IC50: 433 nM

## SGDWLRIIWDWVCSVVSDFKTWLSAKI (Synthetic_Anti-viral peptide derived from hepatitis C virus NS5A protein) [Peptide 6]
[1]; 100 nM peptide
  Vesicle rupture time, calcein (Cal) dye release: 2.46 ± 0.02 min
  Vesicle rupture time, rhodamine (Rh) dye release: 4.75 ± 0.06 min
[1]; 1000 nM peptide
  Vesicle rupture time, calcein (Cal) dye release: 1.57 ± 0.03 min
  Vesicle rupture time, rhodamine (Rh) dye release: 2.74 ± 0.03 min

## SGDWLRIIWDWVCSVVSDFKTWLSAKI [Peptide N6N]
[2]
  IC50: 162 nM
[3]
  IC50: 536 nM
[4]
  IC50: 2780 nM
[5]
  IC50: 165 nM

## SGDWLRIIWDWVCSVVSDFKTWLSAKI [Peptide N6O]
[2]
  IC50: 218 nM
[3]
  IC50: 554 nM
[4]
  IC50: 1470 nM
[5]
  IC50: 273 nM

## SGDWLRIIWDWVCSVVSDFKTWLSAKI [Peptide O6O]
[2]
  IC50: 68 nM
[3]
  IC50: 412 nM
[4]
  IC50: 334 nM
[5]
  IC50: 273 nM

## SGSWLRDIWDWICEVLSDFKTWLKAKL (Synthetic_Anti-viral peptide derived from hepatitis C virus NS5A protein) [Peptide 1]
[1]; 100 nM peptide
  Vesicle rupture time, calcein (Cal) dye release: 5.95 ± 0.03 min
  Vesicle rupture time, rhodamine (Rh) dye release: 10.58 ± 0.33 min
[1]; 1000 nM peptide
  Vesicle rupture time, calcein (Cal) dye release: 4.67 ± 0.32 min
  Vesicle rupture time, rhodamine (Rh) dye release: 6.13 ± 0.09 min

## SGSWLRDIWDWICEVLSDFKTWLKAKL [Peptide N1N]
[2]
  IC50: 218 nM
[3]
  IC50: 402 nM
[4]
  IC50: 3230 nM
[5]
  IC50: 1100 nM

## SGSWLRDIWDWICEVLSDFKTWLKAKL [Peptide N1O]
[2]
  IC50: 219 nM
[3]
  IC50: 363 nM
[4]
  IC50: 974 nM
[5]
  IC50: 294 nM

## SGSWLRDIWEWVCSILTDFKNWLSAKL (Synthetic_Anti-viral peptide derived from hepatitis C virus NS5A protein) [Peptide 4]
[1]; 100 nM peptide
  Vesicle rupture time, calcein (Cal) dye release: 6.50 ± 0.3 min
  Vesicle rupture time, rhodamine (Rh) dye release: 21.13 ± 0.38 min
[1]; 1000 nM peptide
  Vesicle rupture time, calcein (Cal) dye release: 3.71 ± 0.07 min
  Vesicle rupture time, rhodamine (Rh) dye release: 9.51 ± 0.09 min

## SGSWLRDVWDWICTVLTDFKTWLQSKL [O2O] (not fully specified) [Peptide O2O, Peptide 2 with O and O terminal endings]
[1]; small and large tethered vesicles
  Dependence of vesicle rupture on vesicle size (membrane-curvature sensing), single-vesicle analysis: have membrane-curvature sensing mechanisms

## SGSWLRDVWDWICTVLTDFKTWLQSKL [Peptide 2]
[1]; 100 nM peptide
  Vesicle rupture time, calcein (Cal) dye release: 5.54 ± 0.30 min
  Vesicle rupture time, rhodamine (Rh) dye release: 8.69 ± 0.08 min
[1]; 1000 nM peptide
  Vesicle rupture time, calcein (Cal) dye release: 1.91 ± 0.04 min
  Vesicle rupture time, rhodamine (Rh) dye release: 3.13 ± 0.12 min

## SGSWLRDVWDWVCTILTDFKNWLTSKL [Peptide 3]
[1]; 100 nM peptide
  Vesicle rupture time, calcein (Cal) dye release: 4.53 ± 0.17 min
  Vesicle rupture time, rhodamine (Rh) dye release: 8.41 ± 0.08 min
[1]; 1000 nM peptide
  Vesicle rupture time, calcein (Cal) dye release: 1.97 ± 0.11 min
  Vesicle rupture time, rhodamine (Rh) dye release: 2.99 ± 0.03 min
